Test results taken from article PMC5872125, “Fragment-Based Discovery of Inhibitors of the Bacterial DnaG-SSB Interaction” (Antibiotics, 2018).
Where “and” joins values, the source holds several entries; their conditions need not be identical. Equal values may be shown once.

Tests used:
[1] = molecular target: T1, DnaGC (C-terminal helicase-binding domain of DnaG primase) (Escherichia coli, UniProt P0ABS5); experiment: 15N–1H HSQC NMR titration (binding affinity); conditions: 15N–1H HSQC titration, change in chemical shift with incremental additions of ligand; roughly estimated
T1 construct: made in house
Method: The final volume of each sample was 150 μL. The recording time was 30 min for each ^15N–^1H HSQC experiment. A standard pulse sequence was used for data acquisition. Spectra were recorded at 298 K with a Bruker Avance 600 MHz NMR spectrometer equipped with cryoprobe and auto-sample changer. […] The spectra were processed with TOPSPIN 3.1 and analyzed using CCPN [43]. Weighted CSP values were calculated as
Binding affinities were estimated by incremental titration of fragments into protein, with recording of a ^15N–^1H HSQC experiment at each concentration point. Compound solubilities were tested to determine the highest concentrations of ligands used in assays. Equilibrium dissociation constants from NMR titration data were derived using the “single site-specific binding with ligand depletion” model in GraphPad Prism v.6.0 (La Jolla, CA, USA).

DnaGC = molecular target: T2, DnaGC (Escherichia coli, UniProt P0ABS5); experiment: 1D 19F-NMR binding; conditions: compound 1 mM, 50 μM DnaGC (20-fold excess)
T2 construct: made in house
Description: The observed NMR peak shifts were consistent with the docked orientation. The negatively charged tetrazole is predicted to form favorable electrostatic and hydrogen bond interactions with the side chains of K447 and R452. The methyl groups of L446, M451, L455, L484 T515 and L519 form a hydrophobic pocket accommodating two aromatic rings of the compound. One of the fluorine atoms is about 3 Å from the amide group of G481 while the second at the para-position of the phenoxy group points out of the pocket toward K518. In the docked conformation, these fluorine atoms are involved in hydrogen bond formation with these two residues (Figure 4). To test the docked orientation of 5, 1D ^19F-NMR was carried out using a 20-fold excess of compound over protein.
(§1) 1D ^19F-NMR spectra were recorded on a Bruker Avance III 400 MHz NMR spectrometer (Bruker, Karlsruhe, Germany) equipped with the two-channel BBO probe with z-gradient at 300 K. All ^19F-NMR spectra were recorded with 256 scans for fragment and complex samples sequentially. Fragments dissolved in ^2H6-DMSO were diluted in HSQC buffer to give final fragment and protein concentrations of 1 mM and 50 μM, respectively.

E. coli χ = E. coli χ (Escherichia coli, UniProt P28905); experiment: 1D 19F-NMR binding; conditions: in the presence of E. coli χ
Method: The fragments identified here and the first generation of optimized leads for DnaGC were tested against other SSB-Ct binding partners including E. coli PriA, E. coli RNAse HI, and the χ subunit of E. coli and Acinetobacter baumannii DNA polymerase III. STD-NMR was used to assess binding.
as §1

T1 sequence (P0ABS5 434-581): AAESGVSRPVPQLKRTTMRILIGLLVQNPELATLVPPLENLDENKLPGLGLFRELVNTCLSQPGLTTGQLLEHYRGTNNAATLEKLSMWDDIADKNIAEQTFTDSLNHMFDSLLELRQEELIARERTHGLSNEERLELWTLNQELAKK
E. coli χ, sequence (P28905 whole entry, the tested form may be a part): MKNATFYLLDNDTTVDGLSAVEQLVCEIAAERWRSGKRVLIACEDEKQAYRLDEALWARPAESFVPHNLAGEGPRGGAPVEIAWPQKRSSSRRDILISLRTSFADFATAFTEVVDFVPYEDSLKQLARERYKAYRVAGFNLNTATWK
T2 sequence (P0ABS5 434-581): as the sequence (P0ABS5 434-581) above

| SMILES | Kd [1] | binding by 1D 19F-NMR (DnaGC) | binding by 1D 19F-NMR (E. coli χ) |
| --- | --- | --- | --- |
| Fc1ccc(Oc2cccc(F)c2-c2nnn[nH]2)cc1 [Compound 5, 5-[2-fluoro-6-(4-fluorphenoxy)phenyl]tetrazol-1-ide] | 1300 µM and ~1300 µM | confirming binding |  |
| c1ccc(Oc2cccc(-c3nn[nH]n3)c2)cc1 [Compound 6] | 1200 µM and ~1200 µM |  |  |
| O=C(O)CN1C(=O)c2cccc3cccc1c23 [Fragment 1] | ~1100 µM |  |  |
| O=C(O)CSc1c[nH]c2ccccc12 [Fragment 2] | ~3100 µM |  |  |
| O=C(O)CCSc1ccccc1 [Fragment 3] | ~2800 µM |  |  |
| Fc1ccc(-c2nnn[nH]2)cc1 [Fragment 4] | ~3200 µM |  | demonstrated binding |
